In patent US20240286998A1, “F[…], ANALOGUES THEREOF, AND METHODS USING SAME” (Saint Joseph's University, priority 2021, published 2024):
Structures can show the parent of a compound that is named as a salt. Where two headings read alike, the source gives them in different places.

Experiments:
5-HT2B = 5-HT2B (Homo sapiens (Human), UniProt P41595); test: 5-HT2B Gq-mediated calcium flux functional assay; type: cell-based
5-HT2A = 5-HT2A (Homo sapiens (Human), UniProt P28223); test: 5-HT2A Gq-mediated calcium flux functional assay; type: cell-based
5-HT2C = 5-HT2C (Homo sapiens (Human), UniProt P28335); test: 5-HT2C Gq-mediated calcium flux functional assay; type: cell-based
5-HT1A = 5-HT1A (Homo sapiens (Human), UniProt P08908); test: 5-HT1A Gi/o-mediated cAMP inhibition, GloSensor assay; type: cell-based; settings: for 5-HT1A-cAMP Emax (% 5-HT): cAMP inhibition, 0.2 μM isoproterenol, IA = Inactive
Serotonin 5-HT2A (human) = Serotonin 5-HT2A (human) (Homo sapiens (Human), UniProt P28223); test: 5-HT2A receptor binding, [3H]-ketanserin competition in membrane fractions; settings: 1 nM [3H]-ketanserin, Cheng-Prusoff, N=1-3
[1] = IA = Inactive, N=1-3, read-out: 5-HT2B-Ca2+ FLUX pEC50 (converted)
[2] = IA = Inactive, N=1-3, read-out: 5-HT2A-Ca2+ FLUX pEC50 (converted)
[3] = IA = Inactive, N=1-3, read-out: 5-HT2C-Ca2+ FLUX pEC50 (converted)

Chain of 5-HT2C (P28335 whole entry, looked up): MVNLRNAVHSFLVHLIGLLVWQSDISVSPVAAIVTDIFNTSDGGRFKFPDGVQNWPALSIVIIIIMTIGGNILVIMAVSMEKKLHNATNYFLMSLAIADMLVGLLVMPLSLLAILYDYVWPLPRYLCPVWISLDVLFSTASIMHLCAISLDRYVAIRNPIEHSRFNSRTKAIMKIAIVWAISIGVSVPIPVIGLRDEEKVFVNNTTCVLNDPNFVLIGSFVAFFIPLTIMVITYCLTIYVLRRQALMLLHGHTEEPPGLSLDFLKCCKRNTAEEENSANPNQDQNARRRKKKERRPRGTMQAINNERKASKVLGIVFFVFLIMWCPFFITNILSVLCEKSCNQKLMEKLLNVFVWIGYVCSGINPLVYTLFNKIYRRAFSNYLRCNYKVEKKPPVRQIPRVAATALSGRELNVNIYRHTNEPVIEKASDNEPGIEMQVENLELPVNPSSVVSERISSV
Chain of 5-HT2B (P41595 whole entry): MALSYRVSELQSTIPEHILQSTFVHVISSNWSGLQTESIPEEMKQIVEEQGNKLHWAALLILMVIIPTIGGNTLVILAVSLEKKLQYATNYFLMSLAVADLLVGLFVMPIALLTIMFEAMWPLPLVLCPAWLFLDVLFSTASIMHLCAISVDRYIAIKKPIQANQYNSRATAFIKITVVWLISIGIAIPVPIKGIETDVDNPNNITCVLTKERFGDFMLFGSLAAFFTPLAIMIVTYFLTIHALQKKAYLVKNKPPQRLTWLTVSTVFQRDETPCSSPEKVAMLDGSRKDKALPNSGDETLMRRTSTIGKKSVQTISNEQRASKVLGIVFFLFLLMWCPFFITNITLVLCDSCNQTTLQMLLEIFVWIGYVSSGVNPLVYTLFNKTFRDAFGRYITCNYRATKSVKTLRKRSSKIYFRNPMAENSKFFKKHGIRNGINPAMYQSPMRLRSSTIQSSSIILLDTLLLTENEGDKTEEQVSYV

CC(C)N(CC#N)CCc1c[nH]c2ccc(F)cc12 (as salt: HCl) [compound 17, 2-((2-(5-fluoro-1H-indol-3-yl)ethyl)(isopropyl)amino)acetonitrile]
melting point: 147 to 150 °C (dec.)

CN(CCc1c[nH]c2ccc(F)cc12)C1CSC1 (as salt: HCl) [compound 20, N-(2-(5-fluoro-1H-indol-3-yl)ethyl)-N-methylthietan-3-amine]
melting point: 221 to 223.3 °C

CCC(C)N(CCc1c[nH]c2ccc(F)cc12)C(C)C (stereo not drawn) (as salt: HCl) [compound 32, N-(2-(5-fluoro-1H-indol-3-yl)ethyl)-N-isopropylbutan-2-amine]
melting point: 193.7 to 195 °C

CCCN(CC)CCc1c[nH]c2ccc(F)c(F)c12 (as salt: fumarate) [compound 21, N-(2-(4,5-difluoro-1H-indol-3-yl)ethyl)-N-ethylpropan-1-amine]
melting point: 182.1 to 183.3 °C

CC(C)N(CCc1c[nH]c2ccc(F)cc12)CC1CC1 (as salt: hydrochloride)
melting point: 191 to 192.5 °C

CCN(CCc1c[nH]c2ccc(F)cc12)C1CC1 (as salt: hydrochloride)
melting point: 219.7 to 220.1 °C

CC(C)C(C)N(C)CCc1c[nH]c2ccc(F)cc12 (stereo not drawn) (as salt: hydrochloride)
melting point: 157.5 to 158.1 °C

CCCN(CCc1c[nH]c2ccc(F)cc12)C(C)CC (stereo not drawn) (as salt: hydrochloride) [compound 22, N-(2-(5-fluoro-1H-indol-3-yl)ethyl)-N-propylbutan-2-amine]
melting point: 153.2 to 155.4 °C

C=CCN(CC)CCc1c[nH]c2ccc(F)cc12 (as salt: hydrochloride) [compound 36, N-ethyl-N-(2-(5-fluoro-1H-indol-3-yl)ethyl)prop-2-en-1-amine]
melting point: 123.7 to 128.5 °C

CCCN(CC)CCc1c[nH]c2cc(Cl)c(F)cc12 (as salt: hydrochloride) [compound 37, N-(2-(6-chloro-5-fluoro-1H-indol-3-yl)ethyl)-N-ethylpropan-1-amine]
melting point: 231 to 232.6 °C

CC(C)CN(C)CCc1c[nH]c2ccc(F)cc12 (as salt: hydrochloride) [compound 39, N-(2-(5-fluoro-1H-indol-3-yl)ethyl)-N,2-dimethylpropan-1-amine]
melting point: 150 to 151.5 °C

CC(C)N(CCc1c[nH]c2ccc(F)cc12)C1CCC1 (as salt: hydrochloride) [compound 40, N-(2-(5-fluoro-1H-indol-3-yl)ethyl)-N-isopropylcyclobutanamine]
melting point: 191.6 to 193 °C

CCN(C)CCc1c[nH]c2c(F)cc(F)cc12 (as salt: hydrochloride) [compound 69, 2-(5,7-difluoro-1H-indol-3-yl)-N-ethyl-N-methylethan-1-amine]
melting point: 152.7 to 153.5 °C

CN(CCc1c[nH]c2ccc(F)cc12)C1CC1 (as salt: hydrochloride) [compound 160, N-(2-(5-fluoro-1H-indol-3-yl)ethyl)-N-methylcyclopropanamine]
melting point: 218.8 to 219.3 °C

CCCN(CCc1c[nH]c2c(F)cccc12)C1CCC1 (as salt: hydrochloride) [compound 162, N-(2-(7-fluoro-1H-indol-3-yl)ethyl)-N-propylcyclobutanamine]
melting point: 231.7 to 237.2 °C

CCCN(CC)CCc1c[nH]c2c(F)c(F)c(F)cc12 (as salt: hydrochloride) [compound 165, N-ethyl-N-[2-(5,6,7-trifluoro-1H-indol-3-yl)ethyl]propan-1-amine]
melting point: 188 to 188.8 °C

C=CCN(CCC)CCc1c[nH]c2ccc(F)cc12 (as salt: salt) [compound 35, N-(2-(5-fluoro-1H-indol-3-yl)ethyl)-N-propylprop-2-en-1-amine]
melting point: 175.1 to 177.2 °C

CCN(CCc1c[nH]c2ccc(F)cc12)C(C)C [Example 1, N-ethyl-N-(2-(5-fluoro-1H-indol-3-yl)ethyl)propan-2-amine]
EC50 (5-HT2B): 1.32 nM | 5-HT2B-Ca2+ FLUX Emax (% 5-HT) (5-HT2B; IA = Inactive, N=1-3): 100.0 ± 0.6 % 5-HT | EC50 (5-HT2A): 1.35 nM | 5-HT2A-Ca2+ FLUX Emax (% 5-HT) (5-HT2A; IA = Inactive, N=1-3): 102.6 ± 0.8 % 5-HT | EC50 (5-HT2C): 6.61 nM | 5-HT2C-Ca2+ FLUX Emax (% 5-HT) (5-HT2C; IA = Inactive, N=1-3): 107.6 ± 2.3 % 5-HT | EC50 (5-HT1A): 589 nM | 5-HT1A-cAMP Emax (% 5-HT) (5-HT1A): 86.4 ± 2.6 % 5-HT | 5-HT2A pKi ± SEM (Serotonin 5-HT2A (human)): 5.95 ± 0.07 | melting point: 77.1 to 78.1 °C

CN1CCC(c2c[nH]c3ccc(F)cc23)C1 (stereo not drawn) [compound 15, 5-fluoro-3-(1-methylpyrrolidin-3-yl)-1H-indole]
5-HT2A pKi ± SEM (Serotonin 5-HT2A (human)): 6.98 | melting point: 122.8 to 125.1 °C

CN1CCC(c2c[nH]c3cc(F)c(F)cc23)C1 (stereo not drawn) [compound 19, 5,6-difluoro-3-(1-methylpyrrolidin-3-yl)-1H-indole]
5-HT2B-Ca2+ FLUX Emax (% 5-HT) (5-HT2B; IA = Inactive, N=1-3): 32.2 ± 2.2 % 5-HT | EC50 (5-HT2B; [1]): 1.51 nM | 5-HT2A-Ca2+ FLUX Emax (% 5-HT) (5-HT2A; IA = Inactive, N=1-3): 53.3 ± 3.6 % 5-HT | EC50 (5-HT2A; [2]): 3.89 nM | 5-HT2C-Ca2+ FLUX Emax (% 5-HT) (5-HT2C; IA = Inactive, N=1-3): 70.5 ± 2.3 % 5-HT | EC50 (5-HT2C; [3]): 3.63 nM | EC50 (5-HT1A): 2950 nM | 5-HT1A-cAMP Emax (% 5-HT) (5-HT1A): 113.3 ± 4.0 % 5-HT | 5-HT2A pKi ± SEM (Serotonin 5-HT2A (human)): 6.92 | melting point: 119.5 to 120.3 °C

CN1CCC(c2c[nH]c3c(F)cccc23)C1 (stereo not drawn) [compound 23, 7-fluoro-3-(1-methylpyrrolidin-3-yl)-1H-indole]
5-HT2B-Ca2+ FLUX Emax (% 5-HT) (5-HT2B; IA = Inactive, N=1-3): 19.7 ± 0.8 % 5-HT | EC50 (5-HT2B; [1]): 4.37 nM | 5-HT2A-Ca2+ FLUX Emax (% 5-HT) (5-HT2A; IA = Inactive, N=1-3): 41.8 ± 1.6 % 5-HT | EC50 (5-HT2A; [2]): 8.51 nM | 5-HT2C-Ca2+ FLUX Emax (% 5-HT) (5-HT2C; IA = Inactive, N=1-3): 26.6 ± 1.1 % 5-HT | EC50 (5-HT2C; [3]): 20.9 nM | EC50 (5-HT1A): 22.4 nM | 5-HT1A-cAMP Emax (% 5-HT) (5-HT1A): 99.2 ± 1.7 % 5-HT | 5-HT2A pKi ± SEM (Serotonin 5-HT2A (human)): 6.43 | melting point: 129 to 132.1 °C

CCCN(CC)CC(=O)c1c[nH]c2ccc(F)cc12 [compound 24, 2-(ethyl(propyl)amino)-1-(5-fluoro-1H-indol-3-yl)ethan-1-one]
5-HT2A-Ca2+ FLUX Emax (% 5-HT) (5-HT2A; IA = Inactive, N=1-3): 81.0 ± 2.4 % 5-HT | EC50 (5-HT2A; [2]): 1410 nM | EC50 (5-HT1A): 0.49 nM | 5-HT1A-cAMP Emax (% 5-HT) (5-HT1A): 20.5 ± 1.4 % 5-HT | melting point: 203.4 to 205.6 °C

CN1CCC[C@H]1Cc1c[nH]c2ccc(F)cc12 [compound 27, (S)-5-fluoro-3-((1-methylpyrrolidin-2-yl)methyl)-1H-indole]
EC50 (5-HT2B): 14.1 nM | 5-HT2B-Ca2+ FLUX Emax (% 5-HT) (5-HT2B; IA = Inactive, N=1-3): 35.3 ± 1.3 % 5-HT | EC50 (5-HT2A): 58.9 nM | 5-HT2A-Ca2+ FLUX Emax (% 5-HT) (5-HT2A; IA = Inactive, N=1-3): 34.4 ± 2.3 % 5-HT | EC50 (5-HT2C): 56.2 nM | 5-HT2C-Ca2+ FLUX Emax (% 5-HT) (5-HT2C; IA = Inactive, N=1-3): 18.5 ± 0.7 % 5-HT | EC50 (5-HT1A): 562 nM | 5-HT1A-cAMP Emax (% 5-HT) (5-HT1A): 88.2 ± 3.6 % 5-HT | 5-HT2A pKi ± SEM (Serotonin 5-HT2A (human)): 5.57 | melting point: 135 to 136.4 °C

CN1CCC[C@@H]1Cc1c[nH]c2ccc(F)cc12 [compound 28, (R)-5-fluoro-3-((1-methylpyrrolidin-2-yl)methyl)-1H-indole]
EC50 (5-HT2B): 0.724 nM | 5-HT2B-Ca2+ FLUX Emax (% 5-HT) (5-HT2B; IA = Inactive, N=1-3): 90.8 ± 1.1 % 5-HT | EC50 (5-HT2A): 2.34 nM | 5-HT2A-Ca2+ FLUX Emax (% 5-HT) (5-HT2A; IA = Inactive, N=1-3): 91.1 ± 2.5 % 5-HT | EC50 (5-HT2C): 1.74 nM | 5-HT2C-Ca2+ FLUX Emax (% 5-HT) (5-HT2C; IA = Inactive, N=1-3): 92.8 ± 0.9 % 5-HT | EC50 (5-HT1A): 72.4 nM | 5-HT1A-cAMP Emax (% 5-HT) (5-HT1A): 101.20 ± 1.7 % 5-HT | 5-HT2A pKi ± SEM (Serotonin 5-HT2A (human)): 7.19 ± 0.03 | melting point: 127.6 to 131.7 °C

CN1CC(c2c[nH]c3ccc(F)cc23)C1 [compound 29, 5-fluoro-3-(1-methylazetidin-3-yl)-1H-indole]
5-HT2C-Ca2+ FLUX Emax (% 5-HT) (5-HT2C; IA = Inactive, N=1-3): 28.5 ± 0.8 % 5-HT | EC50 (5-HT2C; [3]): 49 nM | EC50 (5-HT1A): 851 nM | 5-HT1A-cAMP Emax (% 5-HT) (5-HT1A): 64.0 ± 3.5 % 5-HT | 5-HT2A pKi ± SEM (Serotonin 5-HT2A (human)): 6.30 | melting point: 119 to 122.8 °C

CCN(CCc1c[nH]c2ccc(F)cc12)C1CCC1 [compound 31, N-ethyl-N-(2-(5-fluoro-1H-indol-3-yl)ethyl)cyclobutanamine]
EC50 (5-HT2B): 2.51 nM | 5-HT2B-Ca2+ FLUX Emax (% 5-HT) (5-HT2B; IA = Inactive, N=1-3): 96.5 ± 1.4 % 5-HT | EC50 (5-HT2A): 2.04 nM | 5-HT2A-Ca2+ FLUX Emax (% 5-HT) (5-HT2A; IA = Inactive, N=1-3): 104.5 ± 1.8 % 5-HT | EC50 (5-HT2C): 57.5 nM | 5-HT2C-Ca2+ FLUX Emax (% 5-HT) (5-HT2C; IA = Inactive, N=1-3): 98.0 ± 1.9 % 5-HT | EC50 (5-HT1A): 22.4 nM | 5-HT1A-cAMP Emax (% 5-HT) (5-HT1A): 100.7 ± 1.8 % 5-HT | 5-HT2A pKi ± SEM (Serotonin 5-HT2A (human)): 6.26 ± 0.32 | melting point: 89.4 to 90.3 °C

CN(CCc1c[nH]c2ccc(F)cc12)C1CCC1 [compound 51, N-(2-(5-fluoro-1H-indol-3-yl)ethyl)-N-methylcyclobutanamine]
5-HT2A pKi ± SEM (Serotonin 5-HT2A (human)): 6.80 ± 0.02 | melting point: 219.4 to 219.7 °C

CCN(C)CCc1c[nH]c2c(F)c(F)c(F)cc12 [compound 164, N-ethyl-N-methyl-2-(5,6,7-trifluoro-1H-indol-3-yl)ethan-1-amine]
EC50 (5-HT2B): 6.17 nM | 5-HT2B-Ca2+ FLUX Emax (% 5-HT) (5-HT2B; IA = Inactive, N=1-3): 33.2 ± 0.9 % 5-HT | EC50 (5-HT2A): 6.46 nM | 5-HT2A-Ca2+ FLUX Emax (% 5-HT) (5-HT2A; IA = Inactive, N=1-3): 76.1 ± 1.1 % 5-HT | EC50 (5-HT2C): 18.6 nM | 5-HT2C-Ca2+ FLUX Emax (% 5-HT) (5-HT2C; IA = Inactive, N=1-3): 89.3 ± 1.3 % 5-HT | 5-HT2A pKi ± SEM (Serotonin 5-HT2A (human)): 6.90 ± 0.13 | melting point: 212.1 to 212.5 °C

CC(C)N(CCc1c[nH]c2ccc(F)cc12)C1CC1 [compound 168, N-(2-(5-fluoro-1H-indol-3-yl)ethyl)-N-isopropylcyclopropanamine]
5-HT2A pKi ± SEM (Serotonin 5-HT2A (human)): 6.18 | melting point: 196.4 to 196.8 °C
